Experimental data as given in US20110097274A1, “Carbon-11 and fluorine-18 labeled radioligands for positron emission tomography (PET) imaging for the brain serotonin transporters” (priority 2002, published 2011).
Several values for one entry are separate records, joined by “and”; a condition that tells them apart may be missing. Equal values may be shown once. Read-outs that look alike come from different tables or passages of the source.

Legend:
[1] = Baboon PET imaging: brain uptake, kinetic analysis and SERT parameters; format: in vivo; conditions: male, baboon, intravenous, baboons
Description: (§1) PET imaging protocol: PET experiments (n=20) were performed at Columbia University. Two adult male baboons (baboon A and B) were studied twice with each of the 5 radioligands (4 experiments per radioligand). All experiments took place within a 9-month period. Baboons A and B were 31 kg and 21 kg in weight at the beginning of the experimental period and 28 and 22 kg at the end, respectively. Test and retest experiments with the same radioligand were obtained on different days, with an average interval of 117±53 days.
(§2) Experiments were performed according to protocols approved by the Columbia-Presbyterian Medical Center Institutional Animal Care and Use Committee. Fasted animals were immobilized with ketamine (10 mg/kg i.m.), and anesthetized with 1.8% isoflurane via an endotracheal tube. Vital signs were monitored every 10 minutes and the temperature was kept constant at 37° C. with heated water blankets. An i.v. perfusion line was used for hydration and injection of radioligands and nonradioactive drugs. A catheter was inserted in a femoral artery for arterial blood sampling. Head was positioned at the center of the field of view as defined by imbedded laser lines. PET imaging was performed with the ECAT EXACT HR+PET scanner (Siemens/CTI, Knoxville, Tenn.). In 3D mode, this camera provides an in-plane resolution of 4.3 mm, 4.5 mm, 5.4 mm and 8.0 mm full width at half maximum (FWHM) at a distance of 0, 1, 10 and 20 cm from the center of the field of view, respectively (Brix et al., 1997). A 15 minute transmission scan was obtained prior to radioligand injection for attenuation correction. Activity was injected i.v. over 30 seconds. […] Emission data was collected in the 3D mode for 91 minutes as 21 successive frames of increasing duration (6*10 seconds, 2*1 minutes, 4*2 minutes, 2*5 minutes, and 7*10 minutes).
(§3) Image analysis: A Magnetic Resonance Image (MRI) of each baboon's brain was obtained for the purpose of identifying the regions of interest (ROI) (T1-weighted axial MRI sequence, acquired parallel to the anterior-posterior commissure, TR 34 msec, TE 5 msec, flip angle of 45 degrees, slice thickness is 1.5 mm, zero gap, matrix 1.5 mm×1 mm×1 mm voxels). The following regions were drawn on the MR images: cerebellum, midbrain, thalamus, striatum, hippocampus, temporal cortex, cingulate cortex and occipital cortex.
(§4) PET emission data were attenuation-corrected using the transmission scan, and frames were reconstructed using a Shepp filter (cutoff 0.5 cycles/projection rays). Reconstructed image files were then processed using the image analysis software MEDx (Sensor Systems, Inc., Sterling, Va.). An image was created by summing all the frames, and this summed image was used to define the registration parameters with the MR image, using between-modality automated image registration (AIR) algorithm (Woods et al., 1993). Registration parameters were then applied to the individual frames for registration to the MR data set. Regional boundaries were transferred to the individual registered PET frames, and time-activity curves were measured and decay-corrected. Right and left regions were averaged. For a given animal, the same regions were used for all radioligands.
(§5) Brain uptake: Total brain uptake was expressed as percentage of the injected dose per gram of tissue (% ID g^−1) in a region encompassing the entire brain. Regional peak time was defined as the mid-time of the frame associated with the highest activity value. To estimate the degree of wash-out from the brain captured during the scan interval (91 minutes), the decrease in activity from the peak frame to the last frame was calculated and expressed in percentage of the peak activity.
(§6) Kinetic analysis: Regional total distribution volumes (VT, mL g^−1) were derived with kinetic analysis of the regional time-activity curves, using the arterial plasma concentrations as input function. […]

[2] = system: SERT; assay: as above; format: in vivo; conditions: for Kp: male, baboon, brain, intravenous
Description: as §1, §2, §3, §4, §5, §6

[3] = BP = VT ROI − VT CER, baboons, mean ± SD of four experiments
[4] = Mean ± SD of four experiments in two baboons
[5] = baboon A, experiments of FIGS. 5-9 (FIG. 10)
[6] = baboons, mean ± SD of four experiments
[7] = last scan 90 minutes, baboons, mean ± SD of four experiments
[8] = one-tissue compartment model, baboons, mean ± SD of four experiments

- Kp ([1]; brain regions (average of all regions), read-out: VT, average of all regions and all animals): 47.8 ± 16
- Kp ([1]; cerebellum, one-tissue compartment model, mean ± SD of four experiments, read-out: VT Cerebellum (VT CER, nonspecific distribution volume)): 29.3 ± 2.9
- Time at which measured thalamus to cerebellum ratio equals the true equilibrium ratio (estimate of peak specific binding) [2, 5]: 80 min
- K1, average of all regions and all animals ([2]; baboons): 0.85 ± 0.23 mL/g/min
- k2, average of all regions and all animals ([2]; baboons): 0.020 ± 0.008 min⁻¹
- Mean regional peak uptake time ([2]; baboons, mean of all regions): 50 ± 20 min
- Mean regional wash-out (% decrease between peak time and last scan) ([2]; baboons, mean of all regions): 12±11%
- Regional uptake peak time Cerebellum [2, 6]: 24 ± 10 min
- Regional uptake peak time Cingulate Cortex [2, 6]: 36 ± 8 min
- Regional uptake peak time Hippocampus [2, 6]: 64 ± 15 min
- Regional uptake peak time Midbrain [2, 6]: 71 ± 13 min
- Regional uptake peak time Occipital Cortex [2, 6]: 36 ± 8 min
- Regional uptake peak time Striatum [2, 6]: 51 ± 19 min
- Regional uptake peak time Temporal Cortex [2, 6]: 49 ± 10 min
- Regional uptake peak time Thalamus [2, 6]: 69 ± 13 min
- Total brain uptake at 45 min ([2]; baboons, region encompassing the entire brain): 0.018±0.002 % ID g^−1
- Regional activity wash-out: % decrease from peak to last scan, Cerebellum [2, 7]: 29 ± 14%
- Regional activity wash-out: % decrease from peak to last scan, Cingulate Cortex [2, 7]: 19 ± 9%
- Regional activity wash-out: % decrease from peak to last scan, Hippocampus [2, 7]: 4 ± 5%
- Regional activity wash-out: % decrease from peak to last scan, Midbrain [2, 7]: 2 ± 3%
- Regional activity wash-out: % decrease from peak to last scan, Occipital Cortex [2, 7]: 18 ± 7%
- Regional activity wash-out: % decrease from peak to last scan, Striatum [2, 7]: 8 ± 8%
- Regional activity wash-out: % decrease from peak to last scan, Temporal Cortex [2, 7]: 11 ± 5%
- Regional activity wash-out: % decrease from peak to last scan, Thalamus [2, 7]: 3 ± 4%
- Kp ([2]; cingulate cortex, one-tissue compartment model, baboons, mean ± SD of four experiments, read-out: VT Cingulate Cortex): 37.1 ± 3.8
- Kp ([2]; hippocampus, one-tissue compartment model, baboons, mean ± SD of four experiments, read-out: VT Hippocampus): 44.7 ± 3.4
- Kp ([2]; midbrain, one-tissue compartment model, baboons, mean ± SD of four experiments, read-out: VT Midbrain): 69.2 ± 7
- Kp ([2]; occipital cortex, one-tissue compartment model, baboons, mean ± SD of four experiments, read-out: VT Occipital Cortex): 35 ± 4.8
- Kp ([2]; striatum, one-tissue compartment model, baboons, mean ± SD of four experiments, read-out: VT Striatum): 52.1 ± 3
- Kp ([2]; temporal cortex, one-tissue compartment model, baboons, mean ± SD of four experiments, read-out: VT Temporal Cortex): 40.5 ± 6
- Kp ([2]; thalamus, one-tissue compartment model, baboons, mean ± SD of four experiments, read-out: VT Thalamus): 74.4 ± 3.1
- K1 Cerebellum [2, 8]: 0.99 ± 0.29 mL/g/min
- K1 Cingulate Cortex [2, 8]: 0.91 ± 0.24 mL/g/min
- K1 Hippocampus [2, 8]: 0.67 ± 0.16 mL/g/min
- K1 Midbrain [2, 8]: 0.86 ± 0.27 mL/g/min
- K1 Occipital Cortex [2, 8]: 0.83 ± 0.17 mL/g/min
- K1 Striatum [2, 8]: 0.90 ± 0.26 mL/g/min
- K1 Temporal Cortex [2, 8]: 0.78 ± 0.18 mL/g/min
- K1 Thalamus [2, 8]: 0.89 ± 0.26 mL/g/min
- K2 Cerebellum [2, 8]: 0.034 ± 0.009 min⁻¹
- K2 Cingulate Cortex [2, 8]: 0.025 ± 0.006 min⁻¹
- K2 Hippocampus [2, 8]: 0.015 ± 0.003 min⁻¹
- K2 Midbrain [2, 8]: 0.012 ± 0.003 min⁻¹
- K2 Occipital Cortex [2, 8]: 0.024 ± 0.005 min⁻¹
- K2 Striatum [2, 8]: 0.017 ± 0.005 min⁻¹
- K2 Temporal Cortex [2, 8]: 0.019 ± 0.004 min⁻¹
- K2 Thalamus [2, 8]: 0.012 ± 0.004 min⁻¹
SMILES: CN(C)Cc1ccccc1Sc1ccc(Br)cc1N [[^11C]DAPA]
- Binding potential Cingulate Cortex [2, 3]: 7.9 ± 1.0 mL/g
- Binding potential Hippocampus [2, 3]: 15.5 ± 0.7 mL/g
- Binding potential Midbrain [2, 3]: 40.0 ± 4.3 mL/g
- Binding potential Occipital Cortex [2, 3]: 5.7 ± 1.9 mL/g
- Binding potential Striatum [2, 3]: 22.9 ± 0.9 mL/g
- Binding potential Temporal Cortex [2, 3]: 11.2 ± 3.3 mL/g
- Binding potential Thalamus [2, 3]: 45.1 ± 1.8 mL/g
- Equilibrium specific to non-specific partition coefficient (V3″) Cingulate Cortex ([2]; Baboon A, single experiment): 0.29 and 0.26
- Equilibrium specific to non-specific partition coefficient (V3″) Hippocampus ([2]; Baboon A, single experiment): 0.54 and 0.48
- Equilibrium specific to non-specific partition coefficient (V3″) Midbrain ([2]; Baboon A, single experiment): 1.41 and 1.37
- Equilibrium specific to non-specific partition coefficient (V3″) Occipital Cortex ([2]; Baboon A, single experiment): 0.22 and 0.25
- Equilibrium specific to non-specific partition coefficient (V3″) Striatum ([2]; Baboon A, single experiment): 0.73 and 0.72
- Equilibrium specific to non-specific partition coefficient (V3″) Temporal Cortex ([2]; Baboon A, single experiment): 0.48 and 0.42
- Equilibrium specific to non-specific partition coefficient (V3″) Thalamus ([2]; Baboon A, single experiment): 1.49 and 1.40
- Equilibrium specific to non-specific partition coefficient (V3″) Cingulate Cortex ([2]; Baboon B, single experiment): 0.25 and 0.27
- Equilibrium specific to non-specific partition coefficient (V3″) Hippocampus ([2]; Baboon B, single experiment): 0.56 and 0.54
- Equilibrium specific to non-specific partition coefficient (V3″) Midbrain ([2]; Baboon B, single experiment): 1.42 and 1.27
- Equilibrium specific to non-specific partition coefficient (V3″) Occipital Cortex ([2]; Baboon B, single experiment): 0.15
- Equilibrium specific to non-specific partition coefficient (V3″) Striatum ([2]; Baboon B, single experiment): 0.91 and 0.79
- Equilibrium specific to non-specific partition coefficient (V3″) Temporal Cortex ([2]; Baboon B, single experiment): 0.30 and 0.32
- Equilibrium specific to non-specific partition coefficient (V3″) Thalamus ([2]; Baboon B, single experiment): 1.81 and 1.52
- Equilibrium specific to non-specific partition coefficient (V3″) Cingulate Cortex [2, 4]: 0.27 ± 0.02
- Equilibrium specific to non-specific partition coefficient (V3″) Hippocampus [2, 4]: 0.53 ± 0.04
- Equilibrium specific to non-specific partition coefficient (V3″) Midbrain [2, 4]: 1.37 ± 0.07
- Equilibrium specific to non-specific partition coefficient (V3″) Occipital Cortex [2, 4]: 0.19 ± 0.05
- Equilibrium specific to non-specific partition coefficient (V3″) Striatum [2, 4]: 0.79 ± 0.09
- Equilibrium specific to non-specific partition coefficient (V3″) Temporal Cortex [2, 4]: 0.38 ± 0.09
- Equilibrium specific to non-specific partition coefficient (V3″) Thalamus [2, 4]: 1.55 ± 0.18
- Thalamus to cerebellum ratio equal to true equilibrium ratio (V3″+1) [2, 5]: 2.49
- V3″ expressed in percentage of [^11C]McN 5652 V3″ ([2]; baboons, combining all regions): 151±18%
- Cingulate Cortex to cerebellum activity ratio at 90 minutes [2, 6]: 1.27 ± 0.05
- Hippocampus to cerebellum activity ratio at 90 minutes [2, 6]: 1.42 ± 0.13
- Midbrain to cerebellum activity ratio at 90 minutes [2, 6]: 2.05 ± 0.31
- Occipital Cortex to cerebellum activity ratio at 90 minutes [2, 6]: 1.19 ± 0.08
- Striatum to cerebellum activity ratio at 90 minutes [2, 6]: 1.69 ± 0.12
- Temporal Cortex to cerebellum activity ratio at 90 minutes [2, 6]: 1.35 ± 0.16
- Thalamus to cerebellum activity ratio at 90 minutes [2, 6]: 2.15 ± 0.30
